Like-named read-outs stand apart in the source and are kept apart here.
Legend:
[1] = test system: colitis symptoms; details: eight weeks of treatment; cotton top tamarins; cited from earlier work
[2] = test system: LTB4 production; details: oral administration; mouse blood ex vivo; cited from earlier work
[3] = test system: LTB4 production; details: oral administration; rat peritoneum in vivo; cited from earlier work
[4] = biological target: T1, recombinant human LTA4 hydrolase (rhLTA4H) (Homo sapiens, UniProt P09960); experiment: Recombinant Human LTA4 Hydrolase Assay for LTA4 Hydrolase Inhibitor Activity; type: biochemical; details: average of results obtained; LTB4 quantified by enzyme-linked immunoassay
T1 construct: made in house; host or cells: Spodoptera frugiperda (Sf-9) cells, baculovirus (pFastBac1)
T1 sequence (P09960 1-611): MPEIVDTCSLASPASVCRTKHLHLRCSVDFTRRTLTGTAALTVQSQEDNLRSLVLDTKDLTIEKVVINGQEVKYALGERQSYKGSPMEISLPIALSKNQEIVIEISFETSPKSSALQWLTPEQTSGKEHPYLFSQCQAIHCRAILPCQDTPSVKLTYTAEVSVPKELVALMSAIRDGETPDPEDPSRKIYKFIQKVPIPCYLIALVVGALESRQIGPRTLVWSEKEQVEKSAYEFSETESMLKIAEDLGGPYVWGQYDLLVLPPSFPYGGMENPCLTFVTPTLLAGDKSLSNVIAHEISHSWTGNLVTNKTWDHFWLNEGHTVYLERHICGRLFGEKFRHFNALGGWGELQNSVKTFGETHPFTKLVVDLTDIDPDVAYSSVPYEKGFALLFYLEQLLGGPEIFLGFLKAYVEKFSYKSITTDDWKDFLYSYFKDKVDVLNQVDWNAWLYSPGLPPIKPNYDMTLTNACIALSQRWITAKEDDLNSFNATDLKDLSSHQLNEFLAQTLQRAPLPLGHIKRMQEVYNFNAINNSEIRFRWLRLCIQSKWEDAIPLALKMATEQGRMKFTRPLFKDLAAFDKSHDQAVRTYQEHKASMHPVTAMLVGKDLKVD
Outline: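 LTB4 formation, quantified by EIA after 10 min at rt, was the read-out once 9 ng LTA4 (free acid) was added to recombinant human enzyme (36 ng, Sf-9 expressed) that had sat 10 min with compound. Buffer: 0.1 M potassium phosphate pH 7.4 with fatty-acid-free BSA; IC50 by 4-parameter fit.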

Ki [4] [nM]	Structure (SMILES)	colitis symptoms [1]	inhibition of ionophore-induced LTB4 production [2]	inhibition of ionophore-induced LTB4 production [3]
	CN(CCCOc1ccc(Cc2ccccc2)cc1)CCC(=O)O.Cl [SC57461]	significantly improved colitis symptoms	caused inhibition	caused inhibition
338	CC(=O)N1CC2CCC(C1)N2CCOc1ccc(Oc2nc3cccc(Cl)c3s2)cc1 [Example 283, meso-1-(8-{2-[4-(7-Chloro-benzothiazol-2-yloxy)-phenoxy]-ethyl}-3,8-diaza-bicyclo[3.2.1]oct-3-yl)-ethanone]			
39	O=C(CO)N1C[C@@H]2C[C@H]1CN2Cc1ccc(Oc2nc3ccccc3s2)cc1F [Example 78, (S,S)-1-{5-[4-(Benzothiazol-2-yloxy)-2-fluoro-benzyl]-2,5-diaza-bicyclo[2.2.1]hept-2-yl}-2-hydroxy-ethanone]			
44	NC(=O)N[C@H]1C[C@H]2CC[C@@H](C1)N2Cc1ccc(Cc2nc3ccccc3o2)cc1 [Example 37, meso-endo-[8-(4-Benzooxazol-2-ylmethyl-benzyl)-8-aza-bicyclo[3.2.1]oct-3-yl]-urea]			

Source: patent publication US8344008B2 (Janssen Pharmaceutica NV, priority 2007, dated 2013)
